Data on 14 compounds can be found in US10023591B2, “Heterocyclic derivatives and use thereof” (C&C RESEARCH LABORATORIES, priority 2014, dated 2018).

Like-named read-outs stand apart in the source and are kept apart here.

One experiment deals with STAT1. Kind of experiment: STAT1 reporter gene assay (luciferase), U2OS stable cell line pGL4-STAT1-TA-luc, IFN-γ stimulation. The note with it: IFN-γ 50 ng/mL, 8 hours, read-out: IC50 (μM) pSTAT1. The format is cell-based, human. As to the method: 1-2) Experiment on the Inhibition of STAT1 Activity
A human osteosarcoma cell line (U2OS stable cell line; pGL4-STAT1-TA-luc), which contains a stably operating STAT1 promoter, was cultured in McCoy 5′A medium (Cat No. 16600, Life Technologies) containing 10% FBS (Cat No. SH30396, Thermo Scientific) and 1000 μg/mL G418 solution (Cat No. 04 727 894 001, Roche). The reporter gene assay using U2OS stable cell line was performed in McCoy 5′A medium containing 10% FBS without G-418 solution. U2OS stable cells were plated in two (2) white 96-well plates with 25,000 cells/50 pt in each well. The cells were cultured at 37° C., under 5% CO2 for 24 hours, and then treated with the compounds listed in Examples which were diluted in various concentrations. Subsequently, IFN-γ was added to each well with a final concentration of 50 ng/mL. Upon completion of the treatment with the compounds and IFN-γ, the cells were cultured at 37° C., under 5% CO2 for 8 hours. The plates were observed under microscope and drug precipitation and particular findings were investigated and recorded.
(§1) The luciferase assay and the cell viability assay were performed respectively with one of two plates. For the luciferase assay, the liquid media in the 96-well plate was removed, and then, 20 μL of passive cell lysis buffer was added to each well. After shaking the plate for 30 minutes, luciferase activities of each well were measured in a PHERAstar™ microplate reader (BMG LABTECH) using a luciferase assay system (Cat No. E1501, Promega). For the cell viability assay, the 96-well plate was placed at room temperature for 30 minutes, added with 20 μL/well of CellTiter-Glo solution (Cat No. G7573, Promega), and shaken for 10 minutes in order to measure cytotoxicity caused by the compounds listed in Examples with a PHERAstar™ microplate reader (BMG LABTECH). Wells without 0.1% DMSO and stimulation were used as a negative control and wells with 0.1% DMSO and stimulation were used as a positive control.
(§2) The results of evaluation on the inhibitory effect of the compounds listed in the Examples on the dimerization of STAT3 and STAT1 obtained via the STAT3 and STAT1 reporter gene assays are shown in Table 9 below.

Experiment [1] has as its system NCI-N87 stomach cancer cell line. The experiment can be described thus: Cell growth inhibition assay, NCI-N87 (CellTiter-Glo). The format is cell-based. The note with it: Homo sapiens; NCI-N87, 5,000 cells/well, 96 hours. The protocol:
The inhibitory effects of the compounds of the present invention against the growth of cancer cells were evaluated as shown below. The cancer cell lines including prostate cancer cell lines (LNCaP, DU-145), stomach cancer cell line (NCI-N87), and breast cancer cell lines (MDA-MB-468) were cultured under the protocol provided by each supplier. A medium supplemented with 10 ng/mL of IL-6 was used for LNCaP, a prostate cancer cell line, when treated with a drug. Each type of cells to be used in experiments was sub-cultured in a 96-well plate by counting the exact number of cells using Tali™ Image-based Cytometer (Life Technologies). In a 96-well plate, DU-145 was employed with 3,000 cells/well; NCI-N87 was employed with 5,000 cells/well; and LNCaP and MDA-MB-468 were employed with 10,000 cells/well. The cells were treated with the compounds listed in Examples which were diluted in various concentrations. Upon completion of the compounds treatment, LNCaP, DU-145, NCI-N87 cells were cultured at 37° C. under 5% CO2 for 96 hours, and MDA-MB-468 cells were cultured at 37° C. in air for 96 hours. Subsequently, the cells were observed under microscope and drug precipitation and particular findings were investigated and recorded. And then, the 96-well plate was placed at room temperature for 30 minutes, added with 20 pt/well of CellTiter-Glo solution (Cat No. G7573, Promega) and shaken for 10 minutes, followed by being subjected to the measurement using PHERAstar™ microplate reader (BMG LABTECH) according to the supplier's general luminometer protocol. Wells where only culture liquid added without cell plating were used as a negative control, whereas wells where culture liquid containing 0.1% DMSO instead of the compounds listed in Examples were used as a positive control.
For orientation: In ATP-based viability assays light output follows the ATP content of the culture.

A further experiment relates to STAT3. The experiment can be described thus: STAT3 reporter gene assay (luciferase), LNCaP stable cell line pSTAT3-TA-luc, IL-6 stimulation. It is filed as cell-based, human. The protocol:
1-1) Experiment on the Inhibition of STAT3 Activity
A human prostate cancer cell line (LNCaP stable cell line; plasmid pSTAT3-TA-luc), which contains a stably operating STAT3 promoter, was cultured in RPMI1640 medium (Cat No. 11875, Life Technologies) containing 10% fetal bovine serum (FBS) (Cat No. SH30396, Thermo Scientific) and 150 μg/mL G-418 solution (Cat No. 04 727 894 001, Roche). The reporter gene assay using LNCaP stable cell line was performed in RPMI1640 medium containing 3% DCC-FBS without G-418 solution. LNCaP stable cells were plated in two (2) white 96-well plates with 30,000 cells/50 μL in each well. The cells were cultured at 37° C., under 5% CO2 for 24 hours, and then treated with the compounds listed in Examples which were diluted in various concentrations. Subsequently, IL-6 was added to each well with a final concentration of 10 ng/mL. Upon completion of the treatment with the compounds and IL-6, the cells were cultured at 37° C., under 5% CO2 for 24 hours. The plates were observed under microscope and drug precipitation and particular findings were investigated and recorded.
as §1, with “one of the two plates.” for “one of two plates.”, “then, 20 μL, of passive” for “then, 20 μL of passive”
as §2
A general note: Reporter assays use an easily measured gene product as a stand-in for the process of interest.

A word on the IC50: it is the concentration at which inhibition is half-maximal. For the compound `CC(C)Oc1cc(OC(F)(F)F)cc(C(C)(C)c2cc(Br)cc(NC(=O)c3cc4cc(C(C)(C)S(C)(=O)=O)ccc4s3)c2)c1` [Example 9, N-(3-bromo-5-(2-(3-isopropoxy-5-(trifluoromethoxy)phenyl)propan-2-yl)phenyl)-5-(2-(methylsulfonyl)propan-2-yl)benzo[b]thiophene-2-carboxamide], the IC50 was above 50 µM with STAT1 (Homo sapiens), 0.02 µM in experiment [1] and 0.00065 µM with STAT3 (Homo sapiens).

Turning to `CC#CCOc1cc(OC(F)(F)F)cc(C(C)(C)c2cc(Cl)cc(NC(=O)c3cc4cc(C(C)(C)S(C)(=O)=O)ccc4s3)c2)c1` [Example 10, N-(3-(2-(3-(but-2-yn-1-yloxy)-5-(trifluoromethoxy)phenyl)propan-2-yl)-5-chlorophenyl)-5-(2-(methylsulfonyl)propan-2-yl)benzo[b]thiophene-2-carboxamide], the results for the IC50 (in the experiment on STAT1 (Homo sapiens); in experiment [1]; with STAT3 (Homo sapiens)) were above 50 µM, 0.01 µM and 0.018 µM, respectively.

Consider `CC(C)COc1cc(OC(F)(F)F)cc(C(C)(C)c2cc(Cl)cc(NC(=O)c3cc4cc(C(C)(C)S(C)(=O)=O)ccc4s3)c2)c1` [Example 11, N-(3-chloro-5-(2-(3-isobutoxy-5-(trifluoromethoxy)phenyl)propan-2-yl)phenyl)-5-(2-(methylsulfonyl)propan-2-yl)benzo[b]thiophene-2-carboxamide], for which the figures for the IC50 (in the experiment on STAT1 (Homo sapiens); in experiment [1]; in the experiment on STAT3 (Homo sapiens)) were above 50 µM, 0.011 µM and 0.0021 µM, respectively.

On to `CC(C)(c1ccc2sc(C(=O)Nc3cc(Cl)cc(Oc4ccc(Cl)cn4)c3)cc2c1)S(C)(=O)=O` [Example 61, N-(3-chloro-5-((5-chloropyridin-2-yl)oxy)phenyl)-5-(2-(methylsulfonyl)propan-2-yl)benzo[b]thiophene-2-carboxamide], for which the figures for the IC50 with STAT1 (Homo sapiens) and in the experiment with STAT3 (Homo sapiens) were above 50 µM and 0.08 µM, respectively.

As for `CC(C)(c1ccc2sc(C(=O)Nc3cc(Cl)nc(Oc4ccc(Cl)nc4)c3)cc2c1)S(C)(=O)=O` [Example 65, N-(2-chloro-6-((6-chloropyridin-3-yl)oxy)pyridin-4-yl)-5-(2-(methylsulfonyl)propan-2-yl)benzo[b]thiophene-2-carboxamide], the IC50 in the experiment on STAT1 (Homo sapiens) is above 50 µM; with STAT3 (Homo sapiens), 0.079 µM.

As for `CC(C)(c1ccc2sc(C(=O)Nc3cc(Oc4ccc(Cl)cc4)nc(Cl)n3)cc2c1)S(C)(=O)=O` [Example 75, N-(2-chloro-6-(4-chlorophenoxy)pyrimidin-4-yl)-5-(2-(methylsulfonyl)propan-2-yl)benzo[b]thiophene-2-carboxamide], the IC50 in the experiment on STAT1 (Homo sapiens) is above 50 µM; in the experiment with STAT3 (Homo sapiens), 0.24 µM.

As to `CC(C)(c1ccc2sc(C(=O)Nc3cc(Cl)nc(Oc4ccc(Cl)cc4)n3)cc2c1)S(C)(=O)=O` [Example 76, N-(6-chloro-2-(4-chlorophenoxy)pyrimidin-4-yl)-5-(2-(methylsulfonyl)propan-2-yl)benzo[b]thiophene-2-carboxamide], the results for the half-maximal inhibitory concentration (IC50) in the experiment with STAT1 (Homo sapiens) and with STAT3 (Homo sapiens) were 3.1 µM and 0.39 µM, respectively.

`CC(C)(c1ccc2sc(C(=O)Nc3cc(Cl)nc(Oc4ccc(Cl)cn4)c3)cc2c1)S(C)(=O)=O` [Example 85, N-(2-chloro-6-((5-chloropyridin-2-yl)oxy)pyridin-4-yl)-5-(2-(methylsulfonyl)propan-2-yl)benzo[b]thiophene-2-carboxamide]: the 50% inhibitory concentration (IC50) was above 50 µM in the experiment with STAT1 (Homo sapiens) and 0.11 µM with STAT3 (Homo sapiens).

With `CC#Cc1cc(OC(F)(F)F)cc(C(C)(C)c2cc(Cl)cc(NC(=O)c3cc4cc(C(C)(C)S(C)(=O)=O)ccc4s3)c2)c1` [Example 87, N-(3-chloro-5-(2-(3-(prop-1-yn-1-yl)-5-(trifluoromethoxy)phenyl)propan-2-yl)phenyl)-5-(2-(methylsulfonyl)propan-2-yl)benzo[b]thiophene-2-carboxamide], the IC50 is above 50 µM in the experiment with STAT1 (Homo sapiens) and 0.0097 µM with STAT3 (Homo sapiens).

Turning to `COc1cc(OC(F)(F)F)cc(C(C)(C)c2cc(NC(=O)c3cc4cc(C(C)(C)S(C)(=O)=O)ccc4s3)cc(Cl)n2)c1` [Example 90, N-(2-chloro-6-(2-(3-methoxy-5-(trifluoromethoxy)phenyl)propan-2-yl)pyridin-4-yl)-5-(2-(methylsulfonyl)propan-2-yl)benzo[b]thiophene-2-carboxamide], the figures for the IC50 in the experiment with STAT1 (Homo sapiens) and in the experiment on STAT3 (Homo sapiens) were above 50 µM and 0.011 µM, respectively.

Consider `COc1cc(OC(F)(F)F)cc(C(C)(C)c2cc(Cl)cc(NC(=O)c3cc4cc(C(C)(C)S(C)(=O)=O)ccc4s3)n2)c1` [Example 91, N-(4-chloro-6-(2-(3-methoxy-5-(trifluoromethoxy)phenyl)propan-2-yl)pyridin-2-yl)-5-(2-(methylsulfonyl)propan-2-yl)benzo[b]thiophene-2-carboxamide], for which the IC50 with STAT1 (Homo sapiens) is above 50 µM; in the experiment with STAT3 (Homo sapiens), 0.0051 µM.

As for `CC(C)(c1ccc2sc(C(=O)Nc3cc(Cl)nc(OC4CCN5CCCC5C4)c3)cc2c1)S(C)(=O)=O` (stereo not shown) [Example 102, N-(2-chloro-6-((octahydroindolizin-7-yl)oxy)pyridin-4-yl)-5-(2-(methylsulfonyl)propan-2-yl)benzo[b]thiophene-2-carboxamide], the IC50 turned out to be 14.5 µM with STAT1 (Homo sapiens) and 2.1 µM with STAT3 (Homo sapiens).

`COC(=O)c1cc(Oc2cc(NC(=O)c3cc4cc(C(C)(C)S(C)(=O)=O)ccc4s3)cc(Cl)n2)no1` [Example 118, methyl 3-((6-chloro-4-(5-(2-(methylsulfonyl)propan-2-yl)benzo[b]thiophene-2-carboxamido)pyridin-2-yl)oxy)isoxazole-5-carboxylate]: the IC50 worked out at 8.6 µM in the experiment with STAT1 (Homo sapiens) and 6 µM in the experiment on STAT3 (Homo sapiens).

Turning to “N-(3-chloro-5-(2-(3-chloro-5-methoxyphenyl)propan-2-yl)phenyl)-5-(2-(methylsulfonyl)propan-2-yl)benzo[b]thiophene-2-carboxamide [Example 55]”, the IC50 with STAT1 was above 50 µM; with STAT3, 0.0022 µM.
